Data on 1 compound can be found in ChEMBL document CHEMBL6153155, “Novel Cyclohexyl Amido Acid Antagonists of Lysophosphatidic Acid Type 1 Receptor for the Treatment of Pulmonary Fibrosis” (ACS Med Chem Lett, 2025).

Data set [1] can be described thus: Lipophilicity, logD of compound at pH 7.4 by chromatographic hydrophobicity index method. It is filed as physicochemical. Particulars: buffer; call rule not given here.
The nature of data set [2]: Metabolic stability in female C57BL/6J mouse liver microsomes assessed as intrinsic clearance measured per mg of protein at 0.5 uM measured upto 45 mins in presence of NADPH regenerating system by HPLC-MS/MS analysis. It is filed as ADME, Microsome. Particulars: read-out: CLH.
The nature of data set [3]: Aqueous solubility of the compound at pH 7.4. It counts as physicochemical. As to conditions: buffer.
Data set [4] can be described thus: Drug uptake in mouse lung at 30 mg/kg, po measured upto 24 hrs. It counts as ADME, organism-based. Particulars: in vivo.
The target of another data set is Bile salt export pump (Homo sapiens, UniProt O95342). The experiment in a line: Inhibition of BSEP in cryopreserved sandwich-cultured human hepatocytes by measuring reduction in TCA biliary clearance using taurocholic acid as substrate. It is filed as cell-based, Hepatocyte.
Chain of Bile salt export pump (O95342 whole entry): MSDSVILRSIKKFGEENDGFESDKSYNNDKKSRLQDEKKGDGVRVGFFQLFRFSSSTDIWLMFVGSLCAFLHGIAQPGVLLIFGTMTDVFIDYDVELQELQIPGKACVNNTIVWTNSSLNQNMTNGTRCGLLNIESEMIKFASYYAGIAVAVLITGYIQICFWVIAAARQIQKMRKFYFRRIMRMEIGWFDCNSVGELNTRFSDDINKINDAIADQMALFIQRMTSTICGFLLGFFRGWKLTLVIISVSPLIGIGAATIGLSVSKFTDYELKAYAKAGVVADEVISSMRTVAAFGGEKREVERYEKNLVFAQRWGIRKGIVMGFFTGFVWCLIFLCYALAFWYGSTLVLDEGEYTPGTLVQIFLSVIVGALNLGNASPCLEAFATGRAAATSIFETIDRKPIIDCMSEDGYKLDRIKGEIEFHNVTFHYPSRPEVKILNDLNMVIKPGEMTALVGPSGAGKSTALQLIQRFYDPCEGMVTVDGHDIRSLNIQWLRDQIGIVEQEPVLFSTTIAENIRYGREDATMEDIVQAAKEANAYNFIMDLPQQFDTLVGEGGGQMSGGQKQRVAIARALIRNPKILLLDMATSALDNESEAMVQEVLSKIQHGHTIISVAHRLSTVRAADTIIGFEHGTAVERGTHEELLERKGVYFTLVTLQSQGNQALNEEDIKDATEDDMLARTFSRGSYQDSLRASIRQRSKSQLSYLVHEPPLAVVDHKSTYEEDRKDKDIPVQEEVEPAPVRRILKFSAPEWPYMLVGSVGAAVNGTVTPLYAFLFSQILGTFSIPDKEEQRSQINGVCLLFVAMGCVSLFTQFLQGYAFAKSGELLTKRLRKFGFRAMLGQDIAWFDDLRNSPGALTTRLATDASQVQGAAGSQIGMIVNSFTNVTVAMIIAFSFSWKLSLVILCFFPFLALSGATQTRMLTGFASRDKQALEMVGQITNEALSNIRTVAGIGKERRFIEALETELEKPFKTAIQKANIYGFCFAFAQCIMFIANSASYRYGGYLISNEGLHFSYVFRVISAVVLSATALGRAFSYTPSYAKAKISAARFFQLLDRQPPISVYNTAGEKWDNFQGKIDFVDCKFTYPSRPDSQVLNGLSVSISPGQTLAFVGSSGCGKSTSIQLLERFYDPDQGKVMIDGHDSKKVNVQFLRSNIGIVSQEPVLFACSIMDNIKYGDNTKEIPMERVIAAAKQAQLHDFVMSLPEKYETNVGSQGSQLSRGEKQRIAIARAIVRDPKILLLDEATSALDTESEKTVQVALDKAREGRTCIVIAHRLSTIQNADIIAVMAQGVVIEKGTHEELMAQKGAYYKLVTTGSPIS
The target in data set [5] is Lysophosphatidic acid receptor 4 (Homo sapiens, UniProt Q99677). The experiment in a line: Antagonist activity at human LPA4 expressed in CHO cells in presence of IBMX pretreated for 30 mins followed by LPA addition and measured after 1 hrs by cAMP accumulation assay. It counts as functional, cell-based. On the technique in general: Cyclic AMP is a second messenger, typically raised through Gs and lowered through Gi signalling.
Chain of Lysophosphatidic acid receptor 4 (Q99677 whole entry): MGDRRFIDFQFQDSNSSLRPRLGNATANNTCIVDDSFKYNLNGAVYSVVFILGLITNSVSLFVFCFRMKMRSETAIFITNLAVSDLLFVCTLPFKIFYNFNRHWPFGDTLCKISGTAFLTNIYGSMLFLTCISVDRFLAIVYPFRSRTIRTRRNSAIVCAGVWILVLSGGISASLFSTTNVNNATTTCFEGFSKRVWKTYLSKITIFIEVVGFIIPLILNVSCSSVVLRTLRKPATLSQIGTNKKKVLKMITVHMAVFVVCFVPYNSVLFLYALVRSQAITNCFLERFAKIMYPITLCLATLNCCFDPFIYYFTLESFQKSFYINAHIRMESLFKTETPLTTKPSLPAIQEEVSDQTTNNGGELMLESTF

The target in data set [6] is ATP-binding cassette sub-family C member 2 (Homo sapiens, UniProt Q92887). The experiment in a line: Inhibition of MRP2 (unknown origin) in presence of ATP by membrane vesicular transport assay. It counts as cell membranes, Membrane vesicle.
Chain of ATP-binding cassette sub-family C member 2 (Q92887 whole entry): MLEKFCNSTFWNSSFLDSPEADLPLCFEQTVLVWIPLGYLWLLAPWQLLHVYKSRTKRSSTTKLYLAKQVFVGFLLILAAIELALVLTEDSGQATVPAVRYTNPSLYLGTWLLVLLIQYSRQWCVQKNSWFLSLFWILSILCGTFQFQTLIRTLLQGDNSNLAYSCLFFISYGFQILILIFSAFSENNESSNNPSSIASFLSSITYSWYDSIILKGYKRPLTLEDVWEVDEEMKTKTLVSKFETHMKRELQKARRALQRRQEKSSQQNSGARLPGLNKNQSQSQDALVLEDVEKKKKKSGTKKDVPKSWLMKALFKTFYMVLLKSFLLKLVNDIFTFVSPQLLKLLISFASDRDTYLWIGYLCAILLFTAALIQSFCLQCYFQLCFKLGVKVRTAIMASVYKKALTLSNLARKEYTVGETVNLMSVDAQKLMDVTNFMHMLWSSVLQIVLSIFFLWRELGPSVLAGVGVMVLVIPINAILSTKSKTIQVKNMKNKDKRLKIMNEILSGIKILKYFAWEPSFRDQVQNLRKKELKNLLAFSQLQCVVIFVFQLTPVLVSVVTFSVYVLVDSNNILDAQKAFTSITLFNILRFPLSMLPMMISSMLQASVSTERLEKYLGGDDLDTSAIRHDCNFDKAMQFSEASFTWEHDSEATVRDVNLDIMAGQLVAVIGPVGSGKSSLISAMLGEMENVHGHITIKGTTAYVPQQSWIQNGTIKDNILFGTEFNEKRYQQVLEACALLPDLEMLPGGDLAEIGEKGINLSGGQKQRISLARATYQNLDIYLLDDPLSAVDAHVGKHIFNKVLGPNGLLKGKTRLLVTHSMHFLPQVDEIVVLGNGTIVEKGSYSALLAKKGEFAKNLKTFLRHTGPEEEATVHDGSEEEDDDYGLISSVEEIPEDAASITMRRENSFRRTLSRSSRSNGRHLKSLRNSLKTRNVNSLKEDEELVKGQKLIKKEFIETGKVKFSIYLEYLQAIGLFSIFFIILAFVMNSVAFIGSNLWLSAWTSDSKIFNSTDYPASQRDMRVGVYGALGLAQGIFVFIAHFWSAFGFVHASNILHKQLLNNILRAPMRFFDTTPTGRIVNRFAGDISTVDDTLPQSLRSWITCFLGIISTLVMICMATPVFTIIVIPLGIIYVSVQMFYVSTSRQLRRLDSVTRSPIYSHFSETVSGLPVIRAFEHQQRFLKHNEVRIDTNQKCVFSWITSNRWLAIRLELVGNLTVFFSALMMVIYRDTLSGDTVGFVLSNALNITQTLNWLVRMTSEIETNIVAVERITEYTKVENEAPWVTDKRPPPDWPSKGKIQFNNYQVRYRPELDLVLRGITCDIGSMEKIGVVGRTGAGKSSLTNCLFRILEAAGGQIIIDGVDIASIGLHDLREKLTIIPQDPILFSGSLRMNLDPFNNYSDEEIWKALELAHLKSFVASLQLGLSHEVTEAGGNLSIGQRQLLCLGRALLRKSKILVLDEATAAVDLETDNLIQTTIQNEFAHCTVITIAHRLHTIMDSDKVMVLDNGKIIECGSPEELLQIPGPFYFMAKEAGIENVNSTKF
In data set [7] the target is ATP-binding cassette sub-family C member 3 (Homo sapiens, UniProt O15438). The experiment in a line: Inhibition of MRP3 (unknown origin) in presence of ATP by membrane vesicular transport assay. It is filed as cell membranes, Membrane vesicle.
Chain of ATP-binding cassette sub-family C member 3 (O15438 whole entry): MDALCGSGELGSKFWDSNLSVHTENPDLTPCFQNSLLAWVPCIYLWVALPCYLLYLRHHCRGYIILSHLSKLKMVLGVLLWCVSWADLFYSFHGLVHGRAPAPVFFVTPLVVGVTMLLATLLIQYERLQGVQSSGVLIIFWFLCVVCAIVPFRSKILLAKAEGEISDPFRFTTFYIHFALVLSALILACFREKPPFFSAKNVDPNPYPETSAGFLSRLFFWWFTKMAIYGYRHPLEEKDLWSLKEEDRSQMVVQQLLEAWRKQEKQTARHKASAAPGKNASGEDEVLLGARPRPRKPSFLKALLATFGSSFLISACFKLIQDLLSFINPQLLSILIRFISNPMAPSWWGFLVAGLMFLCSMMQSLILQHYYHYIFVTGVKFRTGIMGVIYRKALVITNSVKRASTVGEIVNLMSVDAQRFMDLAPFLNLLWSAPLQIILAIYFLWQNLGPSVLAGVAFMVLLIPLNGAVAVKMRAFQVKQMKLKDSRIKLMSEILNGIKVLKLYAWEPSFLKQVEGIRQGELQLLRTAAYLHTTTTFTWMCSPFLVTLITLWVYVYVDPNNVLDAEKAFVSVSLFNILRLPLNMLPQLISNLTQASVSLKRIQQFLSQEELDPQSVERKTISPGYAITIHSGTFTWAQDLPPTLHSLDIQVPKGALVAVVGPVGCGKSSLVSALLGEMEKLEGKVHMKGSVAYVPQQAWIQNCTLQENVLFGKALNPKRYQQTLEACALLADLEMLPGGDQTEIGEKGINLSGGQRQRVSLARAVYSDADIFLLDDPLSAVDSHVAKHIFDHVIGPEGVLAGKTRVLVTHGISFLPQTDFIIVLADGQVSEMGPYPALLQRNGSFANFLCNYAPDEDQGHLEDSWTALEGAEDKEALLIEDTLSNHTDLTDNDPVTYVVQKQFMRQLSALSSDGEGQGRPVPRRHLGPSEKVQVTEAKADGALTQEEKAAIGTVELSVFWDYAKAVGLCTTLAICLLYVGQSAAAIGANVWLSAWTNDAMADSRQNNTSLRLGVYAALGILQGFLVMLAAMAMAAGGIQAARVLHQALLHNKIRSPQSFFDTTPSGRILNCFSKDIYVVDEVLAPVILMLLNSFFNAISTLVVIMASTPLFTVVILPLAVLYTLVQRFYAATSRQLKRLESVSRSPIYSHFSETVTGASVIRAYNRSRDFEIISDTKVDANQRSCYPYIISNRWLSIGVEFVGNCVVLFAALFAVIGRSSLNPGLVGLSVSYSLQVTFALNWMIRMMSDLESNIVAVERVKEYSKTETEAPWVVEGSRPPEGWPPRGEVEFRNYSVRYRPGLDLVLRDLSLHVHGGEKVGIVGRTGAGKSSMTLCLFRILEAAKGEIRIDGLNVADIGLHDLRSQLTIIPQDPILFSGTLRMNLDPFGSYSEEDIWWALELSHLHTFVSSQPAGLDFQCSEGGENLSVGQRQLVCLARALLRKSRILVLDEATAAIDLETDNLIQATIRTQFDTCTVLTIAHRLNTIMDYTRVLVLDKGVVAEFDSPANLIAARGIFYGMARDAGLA
Data set [8] addresses T1, ATP-binding cassette sub-family C member 4 (Homo sapiens, UniProt O15439).
T1 sequence (O15439 whole entry): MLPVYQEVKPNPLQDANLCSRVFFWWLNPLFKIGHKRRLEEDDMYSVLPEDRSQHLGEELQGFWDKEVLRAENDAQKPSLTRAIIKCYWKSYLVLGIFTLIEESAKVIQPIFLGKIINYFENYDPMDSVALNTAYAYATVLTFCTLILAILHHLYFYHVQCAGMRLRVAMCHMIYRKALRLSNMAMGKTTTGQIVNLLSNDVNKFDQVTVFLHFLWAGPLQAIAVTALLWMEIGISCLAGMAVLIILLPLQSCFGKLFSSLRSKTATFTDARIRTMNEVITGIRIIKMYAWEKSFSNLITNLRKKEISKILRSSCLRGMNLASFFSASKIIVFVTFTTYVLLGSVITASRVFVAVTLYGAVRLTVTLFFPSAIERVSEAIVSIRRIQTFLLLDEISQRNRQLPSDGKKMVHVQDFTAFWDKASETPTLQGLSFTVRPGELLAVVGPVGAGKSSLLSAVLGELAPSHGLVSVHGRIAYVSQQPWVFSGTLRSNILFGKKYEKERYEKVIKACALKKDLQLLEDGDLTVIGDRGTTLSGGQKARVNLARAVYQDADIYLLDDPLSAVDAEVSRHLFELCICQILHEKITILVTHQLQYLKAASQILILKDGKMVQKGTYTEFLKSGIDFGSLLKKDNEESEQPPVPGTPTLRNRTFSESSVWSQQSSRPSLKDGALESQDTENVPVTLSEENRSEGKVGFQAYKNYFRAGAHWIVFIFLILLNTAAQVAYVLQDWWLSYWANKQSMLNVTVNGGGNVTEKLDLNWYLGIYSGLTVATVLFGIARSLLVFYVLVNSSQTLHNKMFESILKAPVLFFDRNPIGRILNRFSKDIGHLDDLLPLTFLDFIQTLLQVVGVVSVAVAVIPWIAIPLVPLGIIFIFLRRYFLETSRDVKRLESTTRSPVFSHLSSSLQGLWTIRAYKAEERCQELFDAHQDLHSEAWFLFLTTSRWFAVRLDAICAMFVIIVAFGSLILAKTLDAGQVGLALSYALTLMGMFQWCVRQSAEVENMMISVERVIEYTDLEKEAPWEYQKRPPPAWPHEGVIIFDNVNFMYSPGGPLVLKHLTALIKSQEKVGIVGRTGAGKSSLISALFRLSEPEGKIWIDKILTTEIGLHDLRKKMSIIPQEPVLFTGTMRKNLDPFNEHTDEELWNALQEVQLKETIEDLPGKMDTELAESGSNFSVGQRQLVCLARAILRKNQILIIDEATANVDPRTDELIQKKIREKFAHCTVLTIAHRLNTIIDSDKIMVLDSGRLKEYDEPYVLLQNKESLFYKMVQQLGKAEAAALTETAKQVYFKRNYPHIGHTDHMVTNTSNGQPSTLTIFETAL
The experiment in a line: Inhibition of MRP4 (unknown origin) in presence of ATP by membrane vesicular transport assay. It counts as cell membranes, Membrane vesicle.

Data set [9] can be described thus: Toxicity in cynomolgus monkey assessed as drug tolerance at 12.5 to 100 mg/kg/day, po bid measured after 4 days. It counts as organism-based, Macaca fascicularis. Particulars: in vivo, 96 h, dose 12.5-100 mg/kg/day, time 4 day.
Data set [10] is described as follows: Toxicity in cynomolgus monkey assessed as piloerection at 210 mg/kg/day, po bid measured after 4 days. It counts as organism-based, Macaca fascicularis. As to conditions: in vivo, 96 h, time 4 day.
Data set [11] in a line: Toxicity in cynomolgus monkey assessed as fasciculation at 210 mg/kg/day, po bid measured after 4 days. It counts as organism-based, Macaca fascicularis. As to conditions: in vivo, 96 h, time 4 day.
Data set [12] can be described thus: Toxicity in cynomolgus monkey assessed as abnormally cold to touch at 210 mg/kg/day, po bid measured after 4 days. Particulars: in vivo, 96 h, time 4 day. It is filed as organism-based, Macaca fascicularis.
Data set [13] in a line: Toxicity in cynomolgus monkey assessed as partially closed eyelids at 210 mg/kg/day, po bid measured after 4 days. It is filed as organism-based, Macaca fascicularis. As to conditions: in vivo, 96 h, time 4 day.
The nature of data set [14]: Toxicity in cynomolgus monkey assessed as abnormal vocalization at 210 mg/kg/day, po bid measured after 4 days. It counts as organism-based, Macaca fascicularis. As to conditions: in vivo, 96 h, time 4 day.
Data set [15] in a line: Clearance in female C57BL/6J mouse at 2 mg/kg, iv measured after 24 hrs by UPLC-MS/MS analysis. Particulars: in vivo. It is filed as ADME, organism-based.
Data set [16] is described as follows: Volume of distribution at steady state in female C57BL/6J mouse at 2 mg/kg, iv measured after 24 hrs by UPLC-MS/MS analysis. It is filed as ADME, organism-based. Particulars: in vivo, read-out: Vdss.
Data set [17] is described as follows: Half life in female C57BL/6J mouse at 2 mg/kg, iv measured after 24 hrs by UPLC-MS/MS analysis. It counts as ADME, organism-based. Particulars: in vivo.
The nature of data set [18]: Unbound Cmax in female C57BL/6J mouse plasma at 30 mg/kg, po measured after 24 hrs by UPLC-MS/MS analysis. It is filed as ADME, organism-based. Particulars: in vivo.
Data set [19] can be described thus: Total AUClast in female C57BL/6J mouse plasma at 30 mg/kg, po measured after 24 hrs by UPLC-MS/MS analysis. It is filed as ADME, organism-based. Particulars: in vivo.
Data set [20] in a line: Unbound AUClast in female C57BL/6J mouse plasma at 30 mg/kg, po measured after 24 hrs by UPLC-MS/MS analysis. It is filed as ADME, organism-based. As to conditions: in vivo.
Data set [21] in a line: Tlast in female C57BL/6J mouse plasma at 30 mg/kg, po measured after 24 hrs by UPLC-MS/MS analysis. As to conditions: in vivo. It counts as ADME, organism-based.
Data set [22] can be described thus: Unbound Cmax in female C57BL/6J mouse lung at 30 mg/kg, po measured after 24 hrs by UPLC-MS/MS analysis. It counts as ADME, organism-based. Particulars: in vivo.
The nature of data set [23]: Tlast in female C57BL/6J mouse lung at 30 mg/kg, po measured after 24 hrs by UPLC-MS/MS analysis. It counts as ADME, organism-based. As to conditions: in vivo.

Molecules are shown by their SMILES. ≈ marks a conversion by molar mass, not a printed value.

For orientation: chromatographic logD means lipophilicity estimated from chromatographic retention. One may read the solubility as how much of the substance goes into solution per volume. The term IC50 denotes the midpoint of a concentration-inhibition curve. A word on the clearance: it is a measure of how efficiently the substance is removed, as volume per time. As usually defined, the half-life is how long it takes for the measured level to halve. `Cc1nc(-c2onc(C)c2NC(=O)O[C@H](C)c2ccccc2Cl)ccc1NC(=O)[C@H]1CCCC[C@@H]1C(=O)O` came in with a chromatographic logD in data set [1] of 1.76. Besides, the microsomal CLint at 0.5 µM in [2] is 4 µL/min/mg. For the same compound, the solubility in data set [3] amounted to 505 µM (≈ 273 µg/mL). In addition, the Drug uptake entry in [4] is listed as “Active”. The half-inhibitory concentration (IC50) was 39.8 µM on Bile salt export pump; 12.6 µM in data set [5]; over 200 µM in data set [6]; 25.1 µM in data set [7]; 63.1 µM in [8]. Moreover, the Activity entry in data set [9] is on record as “Non-toxic”; in data set [10] it was “Toxic”; in [11] it was “Toxic”; in data set [12], “Toxic”; in [13], “Toxic”; in [14], “Toxic”. This compound also displayed a clearance in data set [15] of 1.73 mL/min/kg. Besides, the Vd in data set [16] was 0.16 L/kg. This compound also gave a half-life in data set [17] of 1.84 h. For the same compound, the fCmax in data set [18] is 1479 ng/mL; in data set [22], 1553 ng/mL. Besides, in data set [19], the AUClast stood at 247000 h/ng/mL. Besides, the fAUClast in data set [20] was found to be 3675 h/ng/mL. For the same compound, the Tlast in data set [21] and in data set [23] was 24 h throughout.
